Source: US20090209605A1, “NEMATICIDAL COMPOSITIONS” (Devgen N.V., priority 2004, published 2009)

What was measured:
Assay type in all cases: in vivo
[1] = test system: stubby root nematodes (Paratrichodorus), stunt nematodes (Tylenchorhynchus spp.), root lesion nematodes (Pratylenchus spp.) and root knot nematodes …; assay: Nematicide field trial on carrots: % deformed carrots
Procedure: Garden carrots were grown in the open field. The soil contained high levels of stubby root nematodes (Paratrichodorus), stunt nematodes (Tylenchorhynchus spp.), root lesion nematodes (Pratylenchus spp.) and root knot nematodes (Meloidogyne spp.).
(§1) An experimental pattern at Complete Randomized Blocks with four replicas was adopted. Besides the experimental products, each test also included an untreated control and a treatment with the standard commercial product VYDATE 10L (10%) applied in accordance to label instructions.
In carrots, nematodes cause deformation such as stunting, dwarfing, twisting, splitting and bearding. For these experiments, the total percentage of deformed carrots were considered, as these are not marketed for human consumption and are of no commercial interest.
Three different tests have been performed (Tables 9, 10 and 11), each containing an untreated and commercial reference control. All treatments were statistically different from untreated control.

[2] = test system: Meloidogyne incognita nematodes; assay: Pot Assay 1: Meloidogyne infection of potato, egg masses/galls on roots; conditions: potato in pot, week 8 after inoculation
Procedure: 500 ml clay pots were filled with 400 ml of silver sand. One tuber of potato ( Solanum tuberosum cv. Bintje) was planted in the sand. After 2 to 3 weeks incubation, the potato plant was sufficiently developed to be inoculated.
Plants were grown under the usual standard greenhouse conditions at 14° C.-18° C., with 16 hours light and 8 hours dark and 80-90% relative humidity. The pots were watered using individual drippers and fertilizers were added under the form of macro- and micro nutrients according to plant growth requirements. When needed, the plants were sprayed with fungicides and insecticides.
The compounds as described herein were added one day before inoculation. The compounds were dissolved in a 20 ml DMSO-solution and spread over the sand surface. The final concentration is calculated under the assumption that the compound is diffused entirely in the pot. This process occurred during two days at the normal greenhouse conditions described above.
After compound incubation, approximately 1500 juveniles of Meloidogyne incognita nematodes were added to the pots.
The pots were incubated at the described greenhouse conditions until nematode development was completed. At week 8 after inoculation the number of galls formed on the roots was counted after washing off the sandy substrate. Also the effect of the compound on the plant development was recorded.
Every compound was tested in three replicates. Positive control plants were treated with different concentrations of aldicarb, a known nematicide. Negative controls involved 12 replicates of double negative controls (no compound, no nematode), 12 replicates of single negative controls (no compound, no DMSO, with nematode), 24 replicates of DMSO controls (DMSO solution, with nematode).
As assessment of the root development was taken into account.

[3] = test system: root-knot nematode (Meloidogyne spp); assay: Nematicide field trial on cucumber: root galling and yield; conditions: for Average root galling: 0-5 Lamberti scale
Procedure: Open ground grown cucumber (Cucumis sativus cv Carine) were grown on sandy soil with a natural root-knot nematode (Meloidogyne spp) population. Soil samples, collected prior to planting, contained on average 8 J2 juveniles per 100 g soil. A program of 4 applications with intervals of about 14 days was started six days after transplantation.
as §1
[…] The level of nematode attack of the root system at the time of harvesting was assessed by means of the lamberti scoring.

Meloidogyne incognita = assay: Root infestation on agar plate: root knot count on potato microplant roots; conditions: 60 μM in agar, galls counted 5 weeks after inoculation, four replicates
Procedure: 9 cm petri dishes were filled with a 15 ml agar. One stem cutting of a potato microplant (Solanum tuberosum cv. Desirée) was placed on top of the agar layer. After 2 to 3 weeks of incubation at 20° C., the root system was sufficiently developed to be inoculated.
The test compounds (see Table 1) were added 2 days before inoculation by way of spreading a 2 ml DMSO-solution with the compound over the agar and allowing the compound to diffuse in the agar during two days at constant temperature of 20° C. During incubation, the plates are protected from light in a dark incubator. The resulting concentration of each compound in each agar plate was 60 μM.
After incubation, approximately 400 axenic juveniles of Meloidogyne incognita species were added to the plate.
The plates were incubated in the dark at a constant temperature of 20° C. and 5 weeks after inoculation the number of galls formed on the roots were determined by counting. Also any toxic effect of the test compounds on the roots was recorded. 8 weeks after inoculation the plates were stored at low temperature.
Each compound was tested in four replicates. Positive controls were treated with different concentrations of Aldicarb, a known nematicide. Negative controls included 5 replicates of double negative controls (no compound, no nematode), 5 replicates of single negative controls (no compound, with nematode) and 5 replicates of DMSO controls (DMSO solution, with nematode).

Which results are given for `Cc1cc(C2CC2)nc(Nc2ccccc2)n1` [XLIV]?
% total deformed ([1]; test of Table 9, Product Rate 500 g ai/ha): 37.41%; % total deformed ([1]; test of Table 9, Product Rate 1500 g ai/ha): 44.85%; % total deformed ([1]; test of Table 9, Product Rate 3000 g ai/ha): 37.10%; number of egg masses (galls) on roots, Replicate 3 ([2]; 0.5 μM): 5; number of egg masses (galls) on roots, Replicate 1 ([2]; 2 μM): 20; number of egg masses (galls) on roots, Replicate 3 ([2]; 2 μM): 15; number of egg masses (galls) on roots, Replicate 1 ([2]; 10 μM): 20; number of egg masses (galls) on roots, Replicate 1 ([2]; 50 μM): 15; number of egg masses (galls) on roots, Replicate 2 ([2]; 50 μM): 25; number of egg masses (galls) on roots, Replicate 3 ([2]; 50 μM): 5; Average yield of marketable fruits ([3]; Product Rate 500 g ai/ha): 7.3 kg/plant/pot; Average root galling ([3]; Product Rate 500 g ai/ha): 2.5; Average yield of marketable fruits ([3]; Product Rate 1500 g ai/ha): 8.3 kg/plant/pot; Average root galling ([3]; Product Rate 1500 g ai/ha): 2.5; Root knot count, average of the replicate counts (Meloidogyne incognita): 9.5
